# Tests used:
# [1] = DRUGMATRIX: Phosphodiesterase PDE4 enzyme inhibition (substrate: [3H]cAMP + cAMP); settings: u-937, Not Active = under 50% inhibition at 10 µM
# Substance-K receptor = target: T1, Substance-K receptor (Homo sapiens, UniProt P21452); format: cell membranes, CHO, Membrane; also: in other assays of this panel Not Active means under 50% inhibition at 10 µM
# T1 sequence (P21452 whole entry): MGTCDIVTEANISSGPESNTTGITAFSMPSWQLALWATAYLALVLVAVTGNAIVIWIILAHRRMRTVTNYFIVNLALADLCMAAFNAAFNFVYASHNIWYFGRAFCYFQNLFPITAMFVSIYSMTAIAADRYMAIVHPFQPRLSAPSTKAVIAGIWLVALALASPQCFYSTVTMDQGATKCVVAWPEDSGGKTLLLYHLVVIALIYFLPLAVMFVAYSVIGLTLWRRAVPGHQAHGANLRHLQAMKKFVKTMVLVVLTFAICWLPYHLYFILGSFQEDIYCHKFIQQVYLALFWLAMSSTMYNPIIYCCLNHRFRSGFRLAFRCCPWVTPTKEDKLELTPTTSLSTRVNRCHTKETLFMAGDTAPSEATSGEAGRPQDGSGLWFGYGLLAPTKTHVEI
# Adenosine receptor A1 = target: T2, Adenosine receptor A1 (Homo sapiens, UniProt P30542); format: cell membranes, CHO, Membrane;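 also: radioligand binding assay at the adenosine A1 receptor, with DPCPX serving as the labelled ligand; in other assays of this panel Not Active means under 50% inhibition at 10 µM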
# T2 sequence (P30542 whole entry): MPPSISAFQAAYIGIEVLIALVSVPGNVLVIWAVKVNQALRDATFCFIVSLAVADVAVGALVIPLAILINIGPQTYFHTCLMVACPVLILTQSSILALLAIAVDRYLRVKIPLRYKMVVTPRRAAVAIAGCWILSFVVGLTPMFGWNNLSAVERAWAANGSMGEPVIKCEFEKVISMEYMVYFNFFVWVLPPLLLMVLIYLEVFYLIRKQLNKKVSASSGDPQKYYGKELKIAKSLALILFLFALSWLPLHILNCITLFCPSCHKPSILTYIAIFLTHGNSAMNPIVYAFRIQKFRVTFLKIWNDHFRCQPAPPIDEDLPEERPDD
# [2] = target: cGMP-specific 3',5'-cyclic phosphodiesterase (Homo sapiens, UniProt O76074); experiment: DRUGMATRIX: Phosphodiesterase PDE5 enzyme inhibition (substrate: [3H]cGMP + cGMP); format: tissue-based; settings: platelet; Not Active = under 50% inhibition at 10 µM
# [3] = target: Beta-3 adrenergic receptor (Homo sapiens, UniProt P13945); experiment: DRUGMATRIX: Adrenergic beta3 radioligand binding (ligand: [125I] Cyanopindolol); format: cell membranes, HEK293, Membrane; settings: hek293; Not Active = under 50% inhibition at 10 µM
# Beta-3 adrenergic receptor, sequence (P13945 whole entry): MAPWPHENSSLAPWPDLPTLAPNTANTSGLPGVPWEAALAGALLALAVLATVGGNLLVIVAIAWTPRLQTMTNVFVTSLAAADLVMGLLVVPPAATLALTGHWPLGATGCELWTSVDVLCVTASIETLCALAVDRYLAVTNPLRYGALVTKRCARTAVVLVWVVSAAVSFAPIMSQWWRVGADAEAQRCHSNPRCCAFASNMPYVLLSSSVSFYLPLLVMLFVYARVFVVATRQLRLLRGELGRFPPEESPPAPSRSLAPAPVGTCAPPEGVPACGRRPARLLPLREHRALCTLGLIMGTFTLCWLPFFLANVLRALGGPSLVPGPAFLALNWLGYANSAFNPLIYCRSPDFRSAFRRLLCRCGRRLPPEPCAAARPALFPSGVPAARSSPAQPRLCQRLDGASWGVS
Molecule,IC50 [1],Ki [1],IC50 (Substance-K receptor; cho),IC50 (Adenosine receptor A1; cho),IC50 [2],IC50 [3],IC50 (Substance-K receptor; read-out: IC50),Ki (Substance-K receptor; read-out: Ki),IC50 (Adenosine receptor A1; read-out: IC50),Ki (Adenosine receptor A1; read-out: Ki),Ki (Substance-K receptor; cho),Ki (Adenosine receptor A1; cho),Ki [2],Ki [3],IC50 ([1]; read-out: IC50)
Cc1c(F)c(N2CCNC(C)C2)cc2c1c(=O)c(C(=O)O)cn2C1CC1 (stereo not given) [GREPAFLOXACIN],Not Active,Not Active,Not Active,Not Active,Not Active,Not Active,–,–,–,–,–,–,–,–,–
CC(C(=O)O)c1ccc(-c2ccccc2)c(F)c1 (stereo not given) [FLURBIPROFEN],Not Active,Not Active,Not Active,Not Active,Not Active,Not Active,–,–,–,–,–,–,–,–,–
COC(=O)c1ccccc1O [METHYL SALICYLATE],Not Active,Not Active,Not Active,Not Active,Not Active,Not Active,–,–,–,–,–,–,–,–,–
O=C(O)c1cccnc1 [NIACIN],Not Active,Not Active,Not Active,Not Active,Not Active,Not Active,–,–,–,–,–,–,–,–,–
CC[C@H](C)C(=O)O[C@H]1C[C@@H](C)C=C2C=C[C@H](C)[C@H](CC[C@@H]3C[C@@H](O)CC(=O)O3)[C@H]21 [LOVASTATIN],Not Active,Not Active,–,–,Not Active,Not Active,28.2 µM,9.41 µM,26.7 µM,15.6 µM,–,–,–,–,–
COBALT(II) ACETYLACETONATE,Not Active,Not Active,Not Active,Not Active,Not Active,Not Active,–,–,–,–,Not Active,Not Active,Not Active,Not Active,–
CN(C(=O)CCCOc1ccc2[nH]c(=O)ccc2c1)C1CCCCC1 [CILOSTAMIDE],Not Active,Not Active,Not Active,Not Active,Not Active,Not Active,–,–,–,–,–,–,–,–,–
INSULIN HUMAN,Not Active,Not Active,Not Active,Not Active,Not Active,Not Active,–,–,–,–,Not Active,Not Active,Not Active,Not Active,–
CCOC(=O)[C@H](CCc1ccccc1)N[C@@H](C)C(=O)N1CCC[C@H]1C(=O)O,Not Active,Not Active,Not Active,Not Active,Not Active,Not Active,–,–,–,–,–,–,–,–,–
O=C(O)c1cc(=O)c2c(OCC(O)COc3cccc4oc(C(=O)O)cc(=O)c34)cccc2o1 [CROMOLYN],Not Active,Not Active,Not Active,Not Active,Not Active,Not Active,–,–,–,–,–,–,–,–,–
Cc1cccc(Nc2cc(Cl)nc(SCC(=O)O)n2)c1C [PIRINIXIC ACID],Not Active,Not Active,Not Active,Not Active,Not Active,Not Active,–,–,–,–,–,–,–,–,–
CC[C@H]1OC(=O)[C@H](C)[C@@H](O[C@H]2C[C@@](C)(OC)[C@@H](O)[C@H](C)O2)[C@H](C)[C@@H](O[C@@H]2O[C@H](C)C[C@H](N(C)C)[C@H]2O)[C@](C)(OC)C[C@@H](C)C(=O)[C@H](C)[C@@H](O)[C@]1(C)O [CLARITHROMYCIN],Not Active,Not Active,Not Active,Not Active,Not Active,Not Active,–,–,–,–,–,–,–,–,–
CCc1oc2ccccc2c1C(=O)c1cc(Br)c(O)c(Br)c1 [BENZBROMARONE],–,–,Not Active,Not Active,Not Active,Not Active,–,–,–,–,–,–,–,–,1.06 µM
CC[C@]1(O)CC[C@H]2[C@@H]3CCC4=CCCC[C@@H]4[C@H]3CC[C@@]21C,Not Active,Not Active,Not Active,Not Active,Not Active,Not Active,–,–,–,–,–,–,–,–,–
CC(C)(Oc1ccc(C2CC2(Cl)Cl)cc1)C(=O)O (stereo not given) [CIPROFIBRATE],Not Active,Not Active,Not Active,Not Active,Not Active,Not Active,–,–,–,–,–,–,–,–,–
CO[C@H]1[C@@H](O)[C@H](N)[C@@H](O[C@H]2O[C@H]([C@H](C)N)CC[C@H]2N)[C@H](O)[C@@H]1N(C)C(=O)CN [ASTROMICIN],Not Active,Not Active,Not Active,Not Active,Not Active,Not Active,–,–,–,–,–,–,–,–,–

# Source: ChEMBL document CHEMBL1909046, “DrugMatrix in vitro pharmacology data”
